28 molecules from patent US10112899B2 (ViiV HEALTHCARE UK LIMITED, priority 2014, dated 2018) can be followed below.

The IC50 is the point on the concentration scale where inhibition reaches its midpoint. Read a low IC50 as greater potency in that assay.

The test system of this assay is HIV in the HTLV-1 transformed cell line MT-4. The assay can be described thus: organism not typed. It is filed as cell-based. Particulars: MT4, 96 h, MT-4 cells; luciferase/cell titer glo readout after 96 hours; 10 point dose response. (In general: In ATP-based viability assays light output follows the ATP content of the culture.)
`Cc1c(-c2c(C)c3c(c(C)c2[C@H](OC(C)(C)C)C(=O)O)CN(C(=O)c2ccccc2C(C)(C)C)C3)cc(F)c2c1CCCO2` (atropisomer, axis not shown; (M)) [Example 155, (S)-2-(tert-butoxy)-2-(2-(2-(tert-butyl)benzoyl)-6-((M)-8-fluoro-5-methylchroman-6-yl)-4,7-dimethylisoindolin-5-yl)acetic acid] had an IC50 of 48 nM.
The molecule `Cc1ccc(-c2c(C)c3c(c(C)c2[C@H](OC(C)(C)C)C(=O)O)CN(C(=O)c2cc(F)cc(C(=O)O)c2)C3)cc1` [Example 267, (S)-3-(5-(tert-butoxy(carboxy)methyl)-4,7-dimethyl-6-(p-tolyl)isoindoline-2-carbonyl)-5-fluorobenzoic acid] gave an IC50 of 3460 nM.
As for `Cc1ccc(-c2c(C)c3c(c(C)c2[C@H](OC(C)(C)C)C(=O)O)CN(C(=O)c2cccnc2C)C3)cc1` [Example 259, (S)-2-(tert-butoxy)-2-(4,7-dimethyl-2-(2-methylnicotinoyl)-6-(p-tolyl)isoindolin-5-yl)acetic acid], half-maximal inhibition (IC50) was put at 20 nM.
Then `Cc1ccc(-c2c(C)c3c(c(C)c2[C@H](OC(C)(C)C)C(=O)O)CN(C(=O)c2ccccc2C(C)(C)C)C3)cc1` [Example 242, (S)-2-(tert-butoxy)-2-(2-(2-(tert-butyl)benzoyl)-4,7-dimethyl-6-(p-tolyl)isoindolin-5-yl)acetic acid], with 13 nM; and `Cc1ccc(-c2c(C)c3c(c(C)c2[C@H](OC(C)(C)C)C(=O)O)CN(C(=O)c2ccc(F)c(C)c2)C3)cc1` [Example 246, (S)-2-(tert-butoxy)-2-(2-(4-fluoro-3-methylbenzoyl)-4,7-dimethyl-6-(p-tolyl)isoindolin-5-yl)acetic acid], with 5 nM.
As to `COc1cc(C(=O)N2Cc3c(C)c(-c4cc(F)c5c(c4C)CCCO5)c([C@H](OC(C)(C)C)C(=O)O)c(C)c3C2)ccc1F` (atropisomer, axis not shown; (M)) [Example 180, (S)-2-(tert-butoxy)-2-((M)-2-(4-fluoro-3-methoxybenzoyl)-6-(8-fluoro-5-methylchroman-6-yl)-4,7-dimethylisoindolin-5-yl)acetic acid], 4 nM corresponded to half-maximal inhibition (IC50). The IC50 values of the last two molecules are within 1.5-fold of each other.
`Cc1c(-c2c(C)c3c(c(C)c2[C@H](OC(C)(C)C)C(=O)O)CN(C(=O)C2CCCCC2)C3)cc(F)c2c1CCCO2` (atropisomer, axis not shown; (M)) [Example 137, (S)-2-(tert-butoxy)-2-((M)-2-(cyclohexanecarbonyl)-6-(8-fluoro-5-methylchroman-6-yl)-4,7-dimethylisoindolin-5-yl)acetic acid] registered an IC50 of 2 nM.
On to `Cc1ccc(-c2c(C)c3c(c(C)c2[C@H](OC(C)(C)C)C(=O)O)CN(C(=O)N2C[C@H](C)OC[C@H]2C)C3)cc1` [Example 88, (S)-2-(tert-butoxy)-2-(2-((2S,5R)-2,5-dimethylmorpholine-4-carbonyl)-4,7-dimethyl-6-(p-tolyl)isoindolin-5-yl)acetic acid], for which half-maximal inhibition (IC50) required 18 nM. Against the preceding molecule, the IC50 is about 9-fold higher.
Molecule `Cc1ccc(-c2c(C)c3c(c(C)c2[C@H](OC(C)(C)C)C(=O)O)CN(C(=O)c2ccc(F)c(Cl)c2)C3)cc1` [Example 252, (S)-2-(tert-butoxy)-2-(2-(3-chloro-4-fluorobenzoyl)-4,7-dimethyl-6-(p-tolyl)isoindolin-5-yl)acetic acid] had an IC50 of 4 nM.
Consider `Cc1cncc(C(=O)N2Cc3c(C)c(-c4cc(F)c5c(c4C)CCCO5)c([C@H](OC(C)(C)C)C(=O)O)c(C)c3C2)c1` (atropisomer, axis not shown; (M)) [Example 182, (S)-2-(tert-butoxy)-2-((M)-6-(8-fluoro-5-methylchroman-6-yl)-4,7-dimethyl-2-(5-methylnicotinoyl)isoindolin-5-yl)acetic acid], for which half-maximal inhibition (IC50) was put at 5 nM.
With `Cc1ccc(-c2c(C)c3c(c(C)c2[C@H](OC(C)(C)C)C(=O)O)CN(Cc2cccc(C(=O)N4CCCCC4)c2)C3)cc1` [Example 44, (2S)-2-(tert-butoxy)-2-[4,7-dimethyl-6-(4-methylphenyl)-2-{[3-(piperidine-1-carbonyl)phenyl]methyl}-2,3-dihydro-1H-isoindol-5-yl]acetic acid], inhibition was half-maximal at 3350 nM (IC50). Against the preceding molecule, the IC50 is about 670-fold higher.
`Cc1c(-c2c(C)c3c(c(C)c2[C@H](OC(C)(C)C)C(=O)O)CN(C(=O)c2ccc4c(cnn4C)c2)C3)cc(F)c2c1CCCO2` (atropisomer, axis not shown; (M)) [Example 154, (S)-2-(tert-butoxy)-2-((M)-6-(8-fluoro-5-methylchroman-6-yl)-4,7-dimethyl-2-(1-methyl-1H-indazole-5-carbonyl)isoindolin-5-yl)acetic acid] displayed an IC50 of 8 nM. This IC50 is about 420-fold lower than that of the molecule before.
Then `Cc1ccc(-c2c(C)c3c(c(C)c2[C@H](OC(C)(C)C)C(=O)O)CN(Cc2cccc(F)c2C)C3)cc1` [Example 47, (2S)-2-(tert-butoxy)-2-{2-[(3-fluoro-2-methylphenyl)methyl]-4,7-dimethyl-6-(4-methylphenyl)-2,3-dihydro-1H-isoindol-5-yl}acetic acid], with 44 nM; and `Cc1c(-c2c(C)c3c(c(C)c2[C@H](OC(C)(C)C)C(=O)O)CN(S(=O)(=O)c2cccc(F)c2)C3)cc(F)c2c1CCCO2` (atropisomer, axis not shown; (M)) [Example 218, (S)-2-(tert-butoxy)-2-((M)-6-(8-fluoro-5-methylchroman-6-yl)-2-((3-fluorophenyl)sulfonyl)-4,7-dimethylisoindolin-5-yl)acetic acid], with 11 nM; and `Cc1ccc(-c2c(C)c3c(c(C)c2[C@H](OC(C)(C)C)C(=O)O)CN(C(=O)N2CCC(F)(F)C2)C3)c(Cl)c1` [Example 314, (2S)-2-(tert-butoxy)-2-(6-(2-chloro-4-methylphenyl)-2-(3,3-difluoropyrrolidine-1-carbonyl)-4,7-dimethylisoindolin-5-yl)acetic acid], with 4 nM.
Then `Cc1c2c(c(C)c([C@H](OC(C)(C)C)C(=O)O)c1-c1ccc3c(c1)CCCO3)CN(C(=O)N1CCCCC1)C2` [Example 317, (S)-2-(tert-butoxy)-2-(6-(chroman-6-yl)-4,7-dimethyl-2-(piperidine-1-carbonyl)isoindolin-5-yl)acetic acid], with 3 nM.
Then `Cc1ccc(-c2c(C)c3c(c(C)c2[C@H](OC(C)(C)C)C(=O)O)CN(C(=O)N2CCCCC2)C3)cc1` [Example 7, (S)-2-(tert-butoxy)-2-(4,7-dimethyl-2-(piperidine-1-carbonyl)-6-(p-tolyl)isoindolin-5-yl)acetic acid], with 4 nM; and `Cc1ccc(-c2c(C)c3c(c(C)c2[C@H](OC(C)(C)C)C(=O)O)CN(C(=O)c2ccc(Cl)c(Cl)c2)C3)cc1` [Example 276, (S)-2-(tert-butoxy)-2-(2-(3,4-dichlorobenzoyl)-4,7-dimethyl-6-(p-tolyl)isoindolin-5-yl)acetic acid], with 16 nM; and `Cc1ccc(-c2c(C)c3c(c(C)c2[C@H](OC(C)(C)C)C(=O)O)CN(C(=O)c2cc(Cl)ccc2C)C3)cc1` [Example 263, (S)-2-(tert-butoxy)-2-(2-(5-chloro-2-methylbenzoyl)-4,7-dimethyl-6-(p-tolyl)isoindolin-5-yl)acetic acid], with 6 nM.
The molecule `Cc1ccc(-c2c(C)c3c(c(C)c2[C@H](OC(C)(C)C)C(=O)O)CN(Cc2ccc(C(F)(F)F)cc2)C3)cc1` [Example 27, (S)-2-(tert-butoxy)-2-(4,7-dimethyl-6-(p-tolyl)-2-(4-(trifluoromethyl)benzyl)isoindolin-5-yl)acetic acid] gave a concentration for half-maximal inhibition (IC50) of 932 nM.
As to `Cc1c2c(c(C)c([C@H](OC(C)(C)C)C(=O)O)c1-c1ccc(Cl)cc1)CN(C(=O)c1cccc3c1OCO3)C2` [Example 308, (S)-2-(2-(benzo[d][1,3]dioxole-4-carbonyl)-6-(4-chlorophenyl)-4,7-dimethylisoindolin-5-yl)-2-(tert-butoxy)acetic acid], the IC50 is 4 nM.
Then `Cc1c(-c2c(C)c3c(c(C)c2[C@H](OC(C)(C)C)C(=O)O)CN(C(=O)c2cc(F)c(F)c(Cl)c2)C3)cc(F)c2c1CCCO2` (atropisomer, axis not shown; (M)) [Example 194, (S)-2-(tert-butoxy)-2-((M)-2-(3-chloro-4,5-difluorobenzoyl)-6-(8-fluoro-5-methylchroman-6-yl)-4,7-dimethylisoindolin-5-yl)acetic acid], with 11 nM; and `COc1ccc(CN2Cc3c(C)c(-c4ccc(C)cc4)c([C@H](OC(C)(C)C)C(=O)O)c(C)c3C2)cc1` [Example 19, (S)-2-(tert-butoxy)-2-(2-(4-methoxybenzyl)-4,7-dimethyl-6-(p-tolyl)isoindolin-5-yl)acetic acid], with 340 nM; and `Cc1ccc(-c2c(C)c3c(c(C)c2[C@H](OC(C)(C)C)C(=O)O)CN(C(=O)N2CCC[C@@H]2C)C3)cc1` [Example 87, (S)-2-(tert-butoxy)-2-(4,7-dimethyl-2-((S)-2-methylpyrrolidine-1-carbonyl)-6-(p-tolyl)isoindolin-5-yl)acetic acid], with 5 nM.
Then `Cc1ccc(CN2Cc3c(C)c(-c4ccc(C)cc4)c([C@H](OC(C)(C)C)C(=O)O)c(C)c3C2)cc1` [Example 20, (S)-2-(tert-butoxy)-2-(4,7-dimethyl-2-(4-methylbenzyl)-6-(p-tolyl)isoindolin-5-yl)acetic acid], with 115 nM; and `Cc1c(-c2c(C)c3c(c(C)c2[C@H](OC(C)(C)C)C(=O)O)CN(c2nnc(-c4cccc(F)c4)o2)C3)cc(F)c2c1CCCO2` (atropisomer, axis not shown; (M)) [Example 201, (S)-2-(tert-butoxy)-2-((M)-6-(8-fluoro-5-methylchroman-6-yl)-2-(5-(3-fluorophenyl)-1,3,4-oxadiazol-2-yl)-4,7-dimethylisoindolin-5-yl)acetic acid], with 387 nM; and `Cc1ccc(-c2c(C)c3c(c(C)c2[C@H](OC(C)(C)C)C(=O)O)CN(C(=O)c2cccc(OC(C)C)c2)C3)cc1` [Example 234, (S)-2-(tert-butoxy)-2-(2-(3-isopropoxybenzoyl)-4,7-dimethyl-6-(p-tolyl)isoindolin-5-yl)acetic acid], with 26 nM.
On to `Cc1ccc(-c2c(C)c3c(c(C)c2[C@H](OC(C)(C)C)C(=O)O)CN(C(=O)c2cc(F)cc(F)c2)C3)cc1` [Example 119, (S)-2-(tert-butoxy)-2-(2-(3,5-difluorobenzoyl)-4,7-dimethyl-6-(p-tolyl)isoindolin-5-yl)acetic acid], for which the half-inhibitory concentration (IC50) amounted to 3 nM. Compared with the last molecule, the IC50 is about 8.7-fold lower.
